In this experiment the target is T1, human recombinant OX2 (hOX2) receptors expressed in CHO cells (Homo sapiens, UniProt O43614).
T1 construct: host or cells: CHO cells (hOX2-CHO)
T1 sequence (O43614 1-444): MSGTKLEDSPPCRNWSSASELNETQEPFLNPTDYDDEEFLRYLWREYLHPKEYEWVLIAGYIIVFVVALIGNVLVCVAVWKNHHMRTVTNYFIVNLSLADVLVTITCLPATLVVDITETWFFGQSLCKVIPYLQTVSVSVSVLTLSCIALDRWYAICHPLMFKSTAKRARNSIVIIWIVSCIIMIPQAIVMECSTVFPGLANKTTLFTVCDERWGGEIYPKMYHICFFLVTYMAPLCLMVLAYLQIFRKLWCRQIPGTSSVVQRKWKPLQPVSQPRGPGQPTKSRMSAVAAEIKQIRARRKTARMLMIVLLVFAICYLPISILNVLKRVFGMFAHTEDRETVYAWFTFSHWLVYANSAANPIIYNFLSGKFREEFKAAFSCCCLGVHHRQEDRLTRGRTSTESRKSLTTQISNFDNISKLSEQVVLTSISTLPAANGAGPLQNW
The experiment can be described thus: IP-1 accumulation assay (IP-One HTRF) in hOX2-CHO cells. The class given is cell-based. The conditions noted are these: 60 min incubation at 37° C., mean of at least two independent experiments, read-out: EC50_OX2R Category. How it is done:
The accumulation of Inositol-1 Monophosphate (IP-1) was measured using IP-One HTRF® Terbium cryptate based assay (Cisbio) in human recombinant OX1 (hOX1) and at OX2 (hOX2) receptors expressed in CHO cells (DiscoverX) according to the manufacturer's instructions for cells tested in suspension.
hOX1-CHO and hOX2-CHO cells were seeded into white 384-well plates at a density of 20,000 cells/well in Hank's Balanced Salt Solution (HBSS) containing 20 mM HEPES pH 7.4, 50 mM, LiCl and 0.1% and Bovine Serum Albumin (BSA).
Compounds of disclosure were tested in an 11 points concentration response curve (CRC) serially diluted in neat DMSO at 200 fold concentrations and added by Echo acoustic liquid handling (Labcyte) to the cells (0.5% DMSO final in the assay). After 60 min of incubation at 37° C. detection reagents, IP1-d2 tracer and anti-IP1-cryptate were diluted in lysis buffer according to the manufacturer's descriptions and added to the cells.
Following 60 min incubation at room temperature, time-resolved fluorescence (HTRF) was measured at 615 nm and 665 nm by Envision Multilabel reader (Perkin Elmer) and the HTRF ratio (A665/A615×10^4) was calculated.
The IP-1 accumulation response was expressed as percentage of the maximal OX-A response.
Curve fitting and EC50 estimations were carried out using a four-parameter logistic model using XLfit Software. Mean data of EC50 are calculated from at least two independent experiments performed in duplicates
For orientation: In TR-FRET formats the signal depends on donor and acceptor labels being close together.
In the case of `O=C1COC[C@@]2(CCCN3C(=O)COc4ccccc4[C@H]4CC[C@H](CC4)OC[C@H]32)N1` (single isomer, unassigned) [Example 32a], the EC50 is under 100 nM.

For `O=C1CCC[C@]2(CCCN3C(=O)COc4ccccc4[C@H]4CC[C@H](CC4)OC[C@@H]32)N1` (single isomer, unassigned) [Example 58b], the EC50 was over 10000 nM.

In the case of `O=C1COC[C@]2(CCCN3C(=O)COc4c(F)cccc4[C@H]4CC[C@H](CC4)OC[C@@H]32)N1` (single isomer, unassigned) [Example 38b], the EC50 lay in the range of 1000 to 10000 nM.

Consider `CC1Oc2ccccc2[C@H]2CC[C@H](CC2)OC[C@H]2N(CCC[C@]23COCC(=O)N3)C1=O` (single isomer, unassigned) [Example 35b], for which the EC50 is over 10000 nM.

As to `O=C1COC[C@@]2(CCCN3C(=O)COc4ccc(F)c(F)c4[C@H]4CC[C@H](CC4)OC[C@H]32)N1` (single isomer, unassigned) [Example 43a], the EC50 is under 100 nM.

Consider `O=C1COC[C@@]2(CCCN3C(=O)COc4ccc(F)cc4[C@H]4CC[C@H](CC4)OC[C@H]32)N1` (single isomer, unassigned) [Example 41a], for which the EC50 is under 100 nM.

In the case of `O=C1COC[C@@]2(CCN3C(=O)C4(CC4)COc4cccc(F)c4[C@H]4CC[C@H](CC4)OC[C@H]32)N1` (single isomer, unassigned) [Example 73b, (1′s,15′S,16′R,19′s)-3′-fluorodispiro [cyclopropane-1,10′-[8,18]dioxa-[12]azatetracyclo [17.2.2.0^2,^7.0^12,^16]tricosane-15′,3″- morpholine]-2′,4′,6′-triene-5″,11′-dione], the EC50 was over 10000 nM.

As to `O=C1COc2ccccc2[C@H]2CC[C@H](CC2)OC[C@H]2N1CCC[C@]21CCCS(=O)(=O)N1` (single isomer, unassigned) [Example 59b], the EC50 is 1000 to 10000 nM.

In the case of `Cc1ccnc2c1[C@H]1CC[C@H](CC1)OC[C@H]1N(CCC[C@]13COCC(=O)N3)C(=O)CO2` [Example 77b, (1′s,3R,16′S,19′s)-3′-methyl-8′,18′-dioxa-6′, 11′-diazaspiro[morpholine-3,15′-tetracyclo[17.2.2.0^2,70.0^11,16]tricosane]-2′,4′,6′-triene-5,10′-dione], the EC50 is over 10000 nM.

On to `CC1CC2(COCC(=O)N2)C2COC3CCC(CC3)c3ccncc3OCCC(=O)N12` (single isomer, unassigned) [Example 75], for which the EC50 was over 10000 nM.

In the case of `O=C1COCC2(CCCN3C(=O)OCCCOc4cccc(c4)[C@H]4CC[C@H](CC4)OCC32)N1` (mixture of isomers) [Example 54, Rel-(1′s,3S,18′R,21′s)-7′,11′,20′-trioxa-13′-azaspiro[morpholine-3,17′-tetracyclo[19.2.2.1^2,60.0^13,18]hexacosane]-2′(26′),3′,5′-triene-5,12′-dione], the EC50 is under 100 nM.

In the case of `O=C1COC[C@@]2(CCCN3C(=O)CCOc4ccc(F)cc4[C@H]4CC[C@H](CC4)OC[C@H]32)N1` (single isomer, unassigned) [Example 49a], the EC50 is under 100 nM.

For the compound `O=C1COC[C@@]2(CCCN3C(=O)COc4ncccc4[C@H]4CC[C@H](CC4)OC[C@H]32)N1` (single isomer, unassigned) [Example 45a], the EC50 was under 100 nM.

On to `C[C@@H]1C[C@]2(COCC(=O)N2)[C@H]2CO[C@H]3CC[C@H](CC3)c3cc(F)cc(F)c3OCCC(=O)N12` [Example 25b, (1′s,3R,13′R,16′S, 19′s)-4′,6′-difluoro-13′-methyl-8′,18′-dioxa-12′-azaspiro[morpholine-3,15′-tetracyclo[17.2.2. 0^2,^7.0^12,^16]tricosane]-2′,4′,6′-triene-5,11′-dione], for which the EC50 was under 100 nM.

On to `Cc1ccc2c(c1)[C@H]1CC[C@H](CC1)OC[C@@H]1N(C(=O)CO2)[C@H](C)C[C@@]12COCC(=O)N2` (single isomer, unassigned) [Example 22a], for which the EC50 was under 100 nM.

With `O=C1COC[C@@]2(CCN3C(=O)CCOc4cccc(F)c4[C@H]4CC[C@H](CC4)OC[C@H]32)N1` (single isomer, unassigned) [Example 10a], the EC50 is under 100 nM.

For `O=C1CCCC2(CCCN3C(=O)COc4ccccc4[C@H]4CC[C@H](CC4)OCC32)N1` (mixture of isomers) [Example 58, Rel-(1′s,2S,16′R,19′s)-8′,18′-dioxa-11′-azaspiro[piperidine-2,15′-tetracyclo-[17.2.2.0^2,70.0^11,16]tricosane]-2′(7′),3′,5′-triene-6,10′-dione], the EC50 was under 100 nM.

As to `O=C1COc2ccccc2[C@H]2CC[C@H](CC2)OC[C@@H]2N1CCC[C@@]21CCCS(=O)(=O)N1` (single isomer, unassigned) [Example 59a], the EC50 is under 100 nM.

On to `C[C@@H]1C[C@]2(COCC(=O)N2)[C@H]2CO[C@H]3CC[C@H](CC3)c3cccc(F)c3OCC(=O)N12` (single isomer, unassigned) [Example 15b], for which the EC50 was in the range of 1000 to 10000 nM.

Take `O=C1CS[C@]2(CCCN3C(=O)COc4ccccc4[C@H]4CC[C@H](CC4)OC[C@H]32)N1` (single isomer, unassigned) [Example 68b]: the EC50 is over 10000 nM.

Take `O=C1COCC2(CCCN3C(=O)OCCc4ccccc4[C@H]4CC[C@H](CC4)OCC32)N1` (mixture of isomers) [Example 52, Rel-(1′s,3S,17′R,20's)-10′,19′-dioxa-12′-azaspiro[morpholine-3,16′-tetracyclo [18.2.2.0^2,70.0^12,17]tetracosane]-2′(7′), 3′,5′-triene-5,11′-dione]: the EC50 lay within 1000 to 10000 nM.

Turning to `O=C1COC[C@]2(CCN3C(=O)CCOc4cccc(F)c4[C@H]4CC[C@H](CC4)OC[C@@H]32)N1` (single isomer, unassigned) [Example 10b], the EC50 was over 10000 nM.

In the case of `C[C@@H]1C[C@@]2(COCC(=O)N2)[C@@H]2CO[C@H]3CC[C@H](CC3)c3cc(F)cc(F)c3OCC(=O)N12` (single isomer, unassigned) [Example 16a], the EC50 was under 100 nM.

For the compound `C[C@H]1CC(=O)N2CC[C@@]3(COCC(=O)N3)[C@@H]2CO[C@H]2CC[C@H](CC2)c2ccccc2O1` (single isomer, unassigned) [Example 4b, (1′s, 3S,9′S,16′R,19′s)-9′-methyl-8′,18′-dioxa-12′-azaspiro[morpholine-3,15′-tetracyclo[17.2.2.0^2,70.0^12,16]tricosane]-2′(7′),3′,5′-triene-5,11′-dione], the EC50 was in the range of 100 to 1000 nM.

Take `O=C1COCC2(CCN3C(=O)CC(C(F)(F)F)Oc4ccccc4[C@H]4CC[C@H](CC4)OCC32)N1` (relative stereo) [Example 6, rel-(1′s,3S,16′R,19′s)-9′-(trifluoromethyl)-8′,18′-dioxa-12′-azaspiro[morpholine-3,15′-tetracyclo[17.2.2.0^2,70.0^12,16]tricosane]-2′(7′),3′,5′-triene-5,11′-dione]: the EC50 was 1000 to 10000 nM.

Take `C[C@@H]1CC2(COCC(=O)N2)C2Cc3cccc(c3F)-c3ccccc3OCCCN(C)C(=O)N21` (mixture of isomers) [Example 31, (15′R)-24′-fluoro-12′, 15′-dimethyl-8′-oxa-12′, 14′-diazaspiro[morpholine-3,17′-tetracyclo[18.3.1.0^2,70.0^14,18]tetracosane]-1′(24′),2′(7′),3′,5′,20′,22′-hexaene-5,13′-dione]: the EC50 was over 10000 nM.

For the compound `C[C@@H]1C[C@]2(COCC(=O)N2)[C@H]2CO[C@H]3CC[C@H](CC3)c3c(F)cccc3OCC(=O)N12` (single isomer, unassigned) [Example 17b], the EC50 lay within 1000 to 10000 nM.

The record behind these values is patent US20250320227A1, “MACROCYCLIC OREXIN RECEPTOR AGONISTS AND USES THEREOF” (Jazz Pharmaceuticals Ireland Limited, priority 2022, published 2025).
